Our source for the IC50 and Kb values is US20190152992A1, “BENZODIOXANE DERIVATIVES AND THEIR PHARMACEUTICAL USE” (Orion Corporation, priority 2016, published 2019).

One assay has as its target T1, human alpha2C receptors (Homo sapiens, UniProt P18825).
T1 sequence (P18825 1-462): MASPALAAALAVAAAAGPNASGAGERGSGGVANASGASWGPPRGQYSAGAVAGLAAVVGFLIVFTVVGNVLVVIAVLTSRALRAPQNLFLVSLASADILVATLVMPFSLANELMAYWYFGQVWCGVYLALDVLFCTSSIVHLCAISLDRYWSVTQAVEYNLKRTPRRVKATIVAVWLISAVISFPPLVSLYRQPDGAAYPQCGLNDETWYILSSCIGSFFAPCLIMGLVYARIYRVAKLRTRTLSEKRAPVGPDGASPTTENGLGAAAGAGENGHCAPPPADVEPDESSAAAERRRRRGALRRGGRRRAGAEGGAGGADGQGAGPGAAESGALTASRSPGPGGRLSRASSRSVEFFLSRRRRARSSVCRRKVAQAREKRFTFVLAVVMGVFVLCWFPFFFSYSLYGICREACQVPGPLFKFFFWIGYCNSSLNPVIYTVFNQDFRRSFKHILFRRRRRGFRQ
Briefly: Determination of alpha2C antagonistic activity in vitro (FLIPR calcium assay). Conditions: for Kb: Alpha 2C Adrenaline Kb, Kb calculated from IC50 with the Cheng-Prusoff equation, adrenaline as agonist, CHO cells, human alpha2C.

The next assay deals with T2, human alpha2A receptors (Homo sapiens, UniProt P08913).
T2 sequence (P08913 1-465): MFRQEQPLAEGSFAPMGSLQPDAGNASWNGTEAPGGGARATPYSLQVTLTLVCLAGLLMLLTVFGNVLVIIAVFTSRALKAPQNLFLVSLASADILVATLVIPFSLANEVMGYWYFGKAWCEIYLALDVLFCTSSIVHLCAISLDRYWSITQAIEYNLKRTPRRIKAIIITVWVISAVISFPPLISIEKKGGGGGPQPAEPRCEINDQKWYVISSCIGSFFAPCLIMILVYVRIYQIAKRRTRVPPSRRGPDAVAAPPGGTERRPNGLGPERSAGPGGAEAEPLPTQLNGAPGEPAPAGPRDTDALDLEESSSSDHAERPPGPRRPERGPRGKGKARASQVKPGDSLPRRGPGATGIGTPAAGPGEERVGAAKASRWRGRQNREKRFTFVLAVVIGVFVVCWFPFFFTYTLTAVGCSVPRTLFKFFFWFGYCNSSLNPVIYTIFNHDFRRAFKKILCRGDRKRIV
Put plainly: cell-based.

Protocol for human alpha2A receptors: Experiment 1: Determination of alpha2A and alpha2C Antagonistic Activity In Vitro
The growth medium was removed and the cells were incubated with the test compounds and the FLIPR Calcium 6 Assay reagent (Molecular Devices, CA, USA) for 2 h at 37° C. in dark. The test compounds (concentrations in cells 100 pM-10 μM) were dissolved in Probenecid-Ringer consisting of 150 mM NaCl, 3 mM KCl, 1.2 mM MgCl2, 1 mM CaCl2, 5 mM glucose, 20 mM HEPES and 2.5 mM probenecid (pH 7.4 adjusted with 1.0 M NaOH). […] All experiments were performed at 37° C. For agonism measurements the test compounds dissolved in Probenecid-Ringer were applied by FLIPR Tetra at 15 s time point. In order to determine antagonism, the cells were stimulated either with 100 nM adrenaline or noradrenaline and the test compounds were added to the cells 2 h before the experiment with the FLIPR Calcium 6 Assay reagent. […] Typically, there were four replicates at each concentration and six different dose levels. […] The minimum fluorescence value subtracted from the maximum value for each well was used in the calculations. ScreenWorks version 4.0 software was used for analyzing the results. Fitting of the antagonist dose-response results was performed with the free Hill equation and the IC50 values were fitted with IDBS XE software using model 200: y=(A+(B/(1+((x/C)̂D)))), where A is the curve maximum, B the curve minimum and C equals the EC50 value. D is slope factor (Hill). Kb was calculated with the Cheng-Prusoff equation Kb=A/((B/C)+1), where A is the IC50 of antagonist, B the concentration of agonist and C the EC50 of the agonist.

One may read the IC50 as the midpoint of a concentration-inhibition curve. On to `c1ccc2c(c1)OC[C@H](CN1CCC[C@H](n3nnc4ccccc43)C1)O2` [example 145, 1-((S)-1-(((S)-2,3-Dihydrobenzo[b][1,4]dioxin-2-yl)methyl)piperidin-3-yl)-1H-benzo[d][1,2,3]triazole], for which the values for the IC50 at human alpha2C receptors and against human alpha2A receptors were 0.85 nM and 2780 nM, respectively. For the same compound, the Kb was 0.09 nM on human alpha2C receptors and 125 nM at human alpha2A receptors.

As for `CC1CCN([C@H]2CCCN(C[C@H]3COc4ccccc4O3)C2)C1=O` (stereo partly drawn) [example 97, 1-((S)-1-(((S)-2,3-Dihydrobenzo[b][1,4]dioxin-2-yl)methyl)-piperidin-3-yl)-3-methylpyrrolidin-2-one], at human alpha2C receptors, the IC50 was determined as 1 nM and the Kb was 0.1 nM. On human alpha2A receptors, the IC50 was over 10000 nM and the Kb is over 449 nM.

For the compound `O=C1C2CC2(c2ccccc2)C(=O)N1[C@H]1CCCN(C[C@H]2COc3ccccc3O2)C1` (stereo partly drawn) [example 37, 3-((S)-1-(((S)-2,3-Dihydrobenzo[b][1,4]dioxin-2-yl)methyl)piperidin-3-yl)-1-phenyl-3-azabicyclo[3.1.0]hexane-2,4-dione], on human alpha2C receptors, the IC50 is under 0.01 nM and the Kb is under 0.001 nM. Besides, at human alpha2A receptors, the IC50 is over 10000 nM and the Kb is over 449 nM.

As for `O=c1[nH]c2ccccc2c(=O)n1[C@H]1CCCN(C[C@H]2COc3ccccc3O2)C1` [example 72, 3-((S)-1-(((S)-2,3-Dihydrobenzo[b][1,4]dioxin-2-yl)methyl)-piperidin-3-yl)quinazoline-2,4(1H,3H)-dione], on human alpha2C receptors, the IC50 was 0.124 nM and the Kb was 0.012 nM. At human alpha2A receptors, the half-maximal inhibitory concentration (IC50) was over 10000 nM and the Kb was over 449 nM.

As to `CN1C(=O)N([C@H]2CCCN(C[C@H]3COc4ccccc4O3)C2)CC1(C)C` [example 51, 1-((S)-1-(((S)-2,3-Dihydrobenzo[b][1,4]dioxin-2-yl)methyl)piperidin-3-yl)-3,4,4-trimethylimidazolidin-2-one], at human alpha2C receptors, the IC50 came out at 0.11 nM and the Kb was 0.01 nM. On human alpha2A receptors, this compound had an IC50 of over 10000 nM and a Kb of over 449 nM.

Consider `O=C1N(c2ccccc2)CCN1[C@H]1CCCN(C[C@H]2COc3ccccc3O2)C1` [example 48, 1-((S)-1-(((S)-2,3-Dihydrobenzo[b][1,4]dioxin-2-yl)methyl)piperidin-3-yl)-3-phenylimidazolidin-2-one], for which the results for the IC50 on human alpha2C receptors and against human alpha2A receptors were 29.9 nM and over 10000 nM, respectively. Also, the Kb was 3.01 nM on human alpha2C receptors and over 449 nM at human alpha2A receptors.

On to `COc1ccc2nc(C)n([C@H]3CCCN(C[C@H]4COc5ccccc5O4)C3)c2n1` [example 155, 3-((S)-1-(((S)-2,3-Dihydrobenzo[b][1,4]dioxin-2-yl)methyl)piperidin-3-yl)-5-methoxy-2-methyl-3H-imidazo[4,5-b]pyridine], for which, on human alpha2C receptors, the IC50 came out at 56 nM and the Kb was 5.64 nM. At human alpha2A receptors, this compound showed an IC50 of over 10000 nM and a Kb of over 449 nM.

For `Cc1nc2cc(F)c(F)cc2n1[C@H]1CCCN(C[C@H]2COc3ccccc3O2)C1` [example 28, 1-((S)-1-(((S)-2,3-Dihydrobenzo[b][1,4]dioxin-2-yl)methyl)piperidin-3-yl)-5,6-difluoro-2-methyl-1H-benzo[d]imidazole], at human alpha2C receptors, the IC50 is 5.43 nM and the Kb is 0.547 nM. Further, on human alpha2A receptors, the IC50 was over 10000 nM and the Kb is over 449 nM.

For the compound `CC(C)(C)N1CC(=O)N([C@H]2CCCN(C[C@H]3COc4ccccc4O3)C2)C1=O` [example 117, 1-tert-Butyl-3-((S)-1-(((S)-2,3-dihydrobenzo[b][1,4]dioxin-2-yl)methyl)piperidin-3-yl)imidazolidine-2,4-dione], on human alpha2C receptors, the IC50 turned out to be 1.99 nM and the Kb was 0.202 nM. Further, at human alpha2A receptors, the IC50 is over 10000 nM and the Kb was over 449 nM.

Take `CC(C)N1C(=O)N([C@H]2CCCN(C[C@H]3COc4ccccc4O3)C2)C[C@H]1c1ccccc1` [example 6, (R)-1-((S)-1-(((S)-2,3-Dihydrobenzo[b][1,4]dioxin-2-yl)methyl)-piperidin-3-yl)-3-isopropyl-4-phenylimidazolidin-2-one]: the IC50 was found to be 672 nM at human alpha2C receptors and 9870 nM at human alpha2A receptors. Also, the Kb is 67.7 nM at human alpha2C receptors and 443 nM at human alpha2A receptors.

In the case of `COc1cccc2c1CN([C@H]1CCCN(C[C@H]3COc4ccccc4O3)C1)C2=O` [example 55, 2-((S)-1-(((S)-2,3-Dihydrobenzo[b][1,4]dioxin-2-yl)methyl)piperidin-3-yl)-4-methoxyisoindolin-1-one], at human alpha2C receptors, the IC50 amounted to 0.029 nM and the Kb is 0.003 nM. On human alpha2A receptors, this compound displayed an IC50 of over 10000 nM and a Kb of over 449 nM.

Regarding `COCc1nc2ccccc2n1[C@H]1CCCN(C[C@H]2COc3ccccc3O2)C1` [example 151, 1-((S)-1-(((S)-2,3-Dihydrobenzo[b][1,4]dioxin-2-yl)methyl)piperidin-3-yl)-2-(methoxymethyl)-1H-benzo[d]imidazole], at human alpha2C receptors, the IC50 was under 0.1 nM and the Kb is under 0.01 nM. At human alpha2A receptors, this compound had an IC50 of 6160 nM and a Kb of 276 nM.

As for `O=C1c2scnc2CN1[C@H]1CCCN(C[C@H]2COc3ccccc3O2)C1` [example 79, 5-((S)-1-(((S)-2,3-Dihydrobenzo[b][1,4]dioxin-2-yl)methyl)piperidin-3-yl)-4H-pyrrolo[3,4-d]thiazol-6(5H)-one], on human alpha2C receptors, the IC50 was found to be 5.4 nM and the Kb was 0.544 nM. On human alpha2A receptors, this compound gave an IC50 of over 10000 nM and a Kb of over 449 nM.

For `COc1cccc2c1C(=O)N([C@H]1CCCN(C[C@H]3COc4ccccc4O3)C1)C2=O` [example 65, 2-((S)-1-(((S)-2,3-Dihydrobenzo[b][1,4]dioxin-2-yl)methyl)piperidin-3-yl)-4-methoxyisoindoline-1,3-dione], on human alpha2C receptors, the IC50 was under 0.1 nM and the Kb was under 0.01 nM. At human alpha2A receptors, this compound yielded an IC50 of over 10000 nM and a Kb of over 449 nM.

For the compound `CC1(C)CCN([C@H]2CCCN(C[C@H]3COc4ccccc4O3)C2)S1(=O)=O` [example 162, 2-((S)-1-(((S)-2,3-Dihydrobenzo[b][1,4]dioxin-2-yl)methyl)piperidin-3-yl)-5,5-dimethylisothiazolidine 1,1-dioxide], the IC50 at human alpha2C receptors was 6.13 nM; against human alpha2A receptors, over 10000 nM. The Kb at human alpha2C receptors was 0.62 nM; on human alpha2A receptors, over 449 nM.

`O=C1NC(c2ccccc2)C(=O)N1[C@H]1CCCN(C[C@H]2COc3ccccc3O2)C1` (stereo partly drawn) [example 114, 3-((S)-1-(((S)-2,3-Dihydrobenzo[b][1,4]dioxin-2-yl)methyl)piperidin-3-yl)-5-phenylimidazolidine-2,4-dione]: on human alpha2C receptors, the IC50 was under 0.1 nM and the Kb is under 0.01 nM. For the same compound, on human alpha2A receptors, it took 2340 nM to reach half-maximal inhibition (IC50) and the Kb is 105 nM.

`CCC1(CC)OC(=O)N([C@H]2CCCN(C[C@H]3COc4ccccc4O3)C2)C1=O` [example 5, 3-((S)-1-(((S)-2,3-Dihydrobenzo[b][1,4]dioxin-2-yl)methyl)piperidin-3-yl)-5,5-diethyloxazolidine-2,4-dione]: on human alpha2C receptors, the IC50 turned out to be 0.13 nM and the Kb is 0.01 nM. At human alpha2A receptors, the midpoint of inhibition, the IC50, lay at 1300 nM and the Kb stood at 58 nM.

In the case of `COc1ccc2c(c1)CN([C@H]1CCCN(C[C@H]3COc4ccccc4O3)C1)C2=O` [example 69, 2-((S)-1-(((S)-2,3-Dihydrobenzo[b][1,4]dioxin-2-yl)methyl)piperidin-3-yl)-5-methoxyisoindolin-1-one], the IC50 on human alpha2C receptors was 0.89 nM; on human alpha2A receptors it was over 10000 nM. Besides, the Kb at human alpha2C receptors is 0.09 nM; at human alpha2A receptors, over 449 nM.

For `Cc1nc2cccnc2n1[C@H]1CCCN(C[C@H]2COc3ccccc3O2)C1` [example 156, 3-((S)-1-(((S)-2,3-Dihydrobenzo[b][1,4]dioxin-2-yl)methyl)-piperidin-3-yl)-2-methyl-3H-imidazo[4,5-b]pyridine], on human alpha2C receptors, the IC50 was found to be 0.012 nM and the Kb was 0.001 nM. At human alpha2A receptors, this compound returned an IC50 of 3580 nM and a Kb of 161 nM.

With `O=C1CN(Cc2ccccc2)C(=O)N1[C@H]1CCCN(C[C@H]2COc3ccccc3O2)C1` [example 118, 1-Benzyl-3-((S)-1-(((S)-2,3-dihydrobenzo[b][1,4]dioxin-2-yl)methyl)-piperidin-3-yl)imidazolidine-2,4-dione], the IC50 is under 0.1 nM at human alpha2C receptors and 1120 nM at human alpha2A receptors. Also, the Kb was under 0.01 nM at human alpha2C receptors and 50 nM on human alpha2A receptors.
